In paper PMC9551036, “A selective and orally bioavailable VHL-recruiting PROTAC achieves SMARCA2 degradation in vivo” (Nature Communications, 2022):
“And” between values parts separate entries of the source, which are not always exact repeats. Equal values may be shown once. Read-outs that look alike come from different tables or passages of the source.

What was measured:
[1] = biological target: T1, SMARCA4^BD (Homo sapiens, UniProt P51532); test: SPR binding to immobilised SMARCA4 bromodomain
T1 construct: P51532, residues 1448–1569 with additional N-terminal SM residues; GST (TEV site) (N, cleaved yes); made in house; host or cells: Escherichia coli BL21(DE3); construct from SGC Toronto
T1 sequence (P51532 1448-1569): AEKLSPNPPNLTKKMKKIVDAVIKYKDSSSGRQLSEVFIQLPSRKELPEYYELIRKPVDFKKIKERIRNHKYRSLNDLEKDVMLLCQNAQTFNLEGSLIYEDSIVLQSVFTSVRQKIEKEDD
Experimental: SMARCA4^BD was provided by the Structural Genomics Consortium (SGC), Toronto[32] and SMARCA2^BD and PRM1^BD5 were synthesised by GeneArt then subcloned into pDEST15 vectors (Invitrogen). The VCB complex was expressed and purified as described previously, with the modification that 0.3 mM IPTG was used for induction of expression. […] Both were stored in 20 mM 4-(2-hydroxyethyl)−1-piperazineethanesulfonic acid (HEPES), 150 mM sodium chloride and 1 mM tris(2-carboxyethyl)phosphine (TCEP) pH 7.5. SMARCA2^BD, SMARCA4^BD and PBRM1^BD5 were expressed in Escherichia coli BL21(DE3) as N-terminal GST fusion proteins with a TEV protease cleavage site. Expression and purification of these proteins has been described previously[32],[33]. Starter cultures were grown overnight at 37 °C in 10 mL of Luria-Bertani (LB) medium with ampicillin (100 μg/mL). The starter cultures were diluted (1:100) in Terrific Broth (TB) medium with ampicillin (100 μg/mL) and grown in a shaking incubator at 37 °C to an optical density (OD600) ~1 before the temperature was lowered for induction (to 23 °C for SMARCA2^BD or 18 °C for SMARCA4^BD and PRRM1^BD5). […] Cells were harvested by centrifugation and stored at −80 °C prior to purification. Cells were resuspended in Lysis buffer and lysed by sonication (20 pulses of 5 s for 4 min) using a Sonopuls HD 3080 (Bandelin, Berlin, Germany) or by homogenisation using a Stansted Pressure Cell Homogeniser (Stansted Fluid Power). The Lysis buffers were as follows: for SMARCA2^BD: 50 mM HEPES, 500 mM sodium chloride, 5% glycerol, 5 mM dithiothreitol (DTT); for SMARCA4^BD: 25 mM HEPES, 0.3 M sodium chloride, 5% glycerol, 10 mM DTT, pH 7.5; for PBRM1^BD5: 25 mM HEPES, 300 mM sodium chloride, 5% glycerol, 10 mM DTT, pH 7.8; in each case supplemented with complete protease inhibitors (Roche). Affinity purification was performed using Glutathione Sepharose 4B (GE Healthcare) in batch mode or on-column. […] For SMARCA2^BD, prior to TEV protease cleavage the eluted GST-tagged BD was first dialysed into desalting buffer (20 mM HEPES, 250 mM sodium chloride, pH 7.0 + 0.5% glycerol). Where TEV cleavage was performed in solution, a second affinity (GST-trap) column purification step was carried out to remove the GST-tag and uncleaved GST-tagged protein. Proteins were further purified by SEC (HiLoad Superdex-75, 16/600) (GE Healthcare) and stored in Storage buffer (for SMARCA2^BD: 20 mM HEPES, 150 mM sodium chloride, pH 7.5; for SMARCA4^BD: 10 mM HEPES, 0.5 M NaCl, 5% glycerol, pH 7.5; for PBRM1^BD5: 20 mM HEPES, 300 mM NaCl, 5 mM DTT, pH 7.8). For AlphaScreen assays, eluted GST-tagged BDs were purified directly by SEC in the respective storage buffers without TEV cleavage. All chromatography purification steps were performed either at room temperature or 4 °C using an ÄKTA FPLC purification system (GE Healthcare) or a plastic Econo-Pac column (Bio-Rad).
SPR data were acquired on Biacore 8K or T200 instruments (Cytiva). Target proteins were immobilised at 25 °C on CM5 chips by amine coupling (EDC/NHS, Cytiva) in HBS-P+ running buffer (pH 7.4), containing 2 mM TCEP. After surface activation with EDC/NHS (contact time 420 s, flow rate 10 µl/min) SMARCA2^BD and SMARCA4^BD at 0.01–0.05 mg/ml in coupling buffer (10 mM Na-Acetate pH 6.5, 0.005% TWEEN 20 and 50 µM PFI-3[13]) were immobilised to a density of 100–5000 Response Units (RU). The reference surface was subsequently deactivated using 1 M ethanolamine. For VCB immobilisation, streptavidin (Sigma Aldrich, prepared at 1 mg/ml in 10 mM sodium acetate coupling buffer, pH 5.0) was immobilised by amine coupling to a density of 3000–5000 RU after which biotinylated VCB complex (0.125 mM in running buffer) was streptavidin-coupled to a density of 100–500 RU. Biotinylated VCB was prepared as previously described[27]: in brief, the complex was mixed 1:1 with EZ-Link NHS–PEG4–biotin (Thermo Scientific) and incubated at room temperature for 1 h.

[2] = tested on: VCB: PROTAC: SMARCA4^BD ternary complex; test: TR-FRET ternary complex affinity and cooperativity, SMARCA4; format: binding, human; details: ratio TR-FRET EC50 / TR-FRET EC50 +VCB measured in the same run, SMARCA4BD
[3] = biological target: VCB: PROTAC: SMARCA4^BD ternary complex (Homo sapiens, UniProt P40337+P51532); test: as above; format: binding; parameters: P51532, residues 1448–1569 with additional N-terminal SM residues; GST (TEV site) (N); His6 (TEV site) (N, cleaved yes); made in house; host or cells: SMARCA4^BD: Escherichia coli BL21(DE3)
Chain of VCB: PROTAC: SMARCA4^BD ternary complex (Homo sapiens, UniProt P40337+P51532) (P51532 1448-1569): as above
Chain of VCB: PROTAC: SMARCA4^BD ternary complex (Homo sapiens, UniProt P40337+P51532) (P40337 54-213): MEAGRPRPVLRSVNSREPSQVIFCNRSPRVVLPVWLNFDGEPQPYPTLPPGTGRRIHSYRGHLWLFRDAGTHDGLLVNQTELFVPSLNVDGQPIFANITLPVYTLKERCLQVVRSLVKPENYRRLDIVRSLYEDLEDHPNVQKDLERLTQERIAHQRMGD
Chain of VCB: PROTAC: SMARCA4^BD ternary complex (Homo sapiens, UniProt P40337+P51532) (Q15369 17-112 partner): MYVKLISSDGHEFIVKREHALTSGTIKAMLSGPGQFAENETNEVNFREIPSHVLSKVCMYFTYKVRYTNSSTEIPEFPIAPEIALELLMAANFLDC
Chain of VCB: PROTAC: SMARCA4^BD ternary complex (Homo sapiens, UniProt P40337+P51532) (Q15370 1-104 partner): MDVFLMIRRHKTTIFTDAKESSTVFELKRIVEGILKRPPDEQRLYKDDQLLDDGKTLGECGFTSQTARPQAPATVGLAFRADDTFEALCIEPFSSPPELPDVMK

[4] = PROTAC + VCB, individual replicates, read-out: Ternary SMARCA4 BD EC50 (PROTAC + VCB)
[5] = TR-FRET competition for SMARCA4BD, + VCB, mean ± SD, read-out: TR-FRET Ternary SMARCA4BD EC50 (PROTAC + VCB)

Structure (SMILES) | Kd ([1]; SMARCA4BD, mean ± SD) [nM] | Kd ([1]; individual replicates) | cooperativity α (SMARCA4BD) [2] | EC50 [3, 4] | EC50 [3, 5] [nM]
Cc1ncsc1-c1ccc(C(CCC(C)CCN2CCC(c3ccc4c(c3)n(C3CCCC3)c3nc(=O)c5c(Br)cccc5n43)CC2)NC(=O)C2CC(O)CN2C(=O)C(NC(=O)C2(F)CC2)C(C)(C)C)cc1 (centres unmarked) [ACBI2] | 314 ± 76 | 236 nM and 318 nM and 388 nM | 3.7 ± 0.8 | 80.9 nM and 99.7 nM and 79.5 nM | 86 ± 11
Cc1ncsc1-c1ccc([C@H](CCCCCN2CCC(c3ccc4c(c3)n(C3CCCC3)c3nc(=O)c5c(Br)cccc5n43)CC2)NC(=O)[C@@H]2C[C@@H](O)CN2C(=O)[C@@H](NC(=O)C2(F)CC2)C(C)(C)C)cc1 [compound 11] | 297 ± 147 | 201 nM and 223 nM and 466 nM | 4.2 ± 0.4 | 65.3 nM and 77.7 nM and 60.4 nM | 67 ± 9
Cc1ncsc1-c1ccc(CNC(=O)[C@@H]2C[C@@H](O)CN2C(=O)[C@@H](NC(=O)C2(F)CC2)C(C)(C)C)c(OCCCCN2CCC(c3ccc4c(c3)n(C3CCCC3)c3nc(=O)c5c(Br)cccc5n43)CC2)c1 [compound 23] | 169 ± 76 | 117 nM and 133 nM and 256 nM | 0.9 ± 0.1 | 165 nM and 215 nM and 180 nM and 280 nM | 206 ± 51
Cc1ncsc1-c1ccc([C@H](CC[C@H](C)CCN2CCC(c3ccc4c(c3)n(C3CCCC3)c3nc(=O)c5c(Br)cccc5n43)CC2)NC(=O)[C@@H]2C[C@H](O)CN2C(=O)[C@@H](NC(=O)C2(F)CC2)C(C)(C)C)cc1 [compound 12] | 362 ± 52 | 306 nM and 408 nM and 370 nM | 0.9 ± 0.1 | > 400 nM and 385 nM and 314 nM | 367 ± 38
Cc1ncsc1-c1ccc(CNC(=O)[C@@H]2C[C@@H](O)CN2C(=O)[C@@H](NC(=O)C2(F)CC2)C(C)(C)C)c(OCCOCCOCCOCCN2CCC(c3ccc4c(c3)n(C3CCCC3)c3nc(=O)c5c(Br)cccc5n43)CC2)c1 [compound 22] | 1430 ± 339 | 1040 nM and 1650 nM and 1600 nM | 9.1 ± 0.7 | 73.1 nM and 97.3 nM and 87.2 nM and 102 nM | 89 ± 13
Cc1ncsc1-c1ccc([C@H](CCC(C)(C)CCN2CCC(c3ccc4c(c3)n(C3CCCC3)c3nc(=O)c5c(Br)cccc5n43)CC2)NC(=O)[C@@H]2C[C@@H](O)CN2C(=O)[C@@H](NC(=O)C2(F)CC2)C(C)(C)C)cc1 [compound 30] | 579 ± 89 | 492 nM and 575 nM and 669 nM | 4.3 ± 0.5 | 88.3 nM and 118 nM and 113 nM | 106 ± 16
Cc1ncsc1-c1ccc([C@H](COCCCN2CCC(c3ccc4c(c3)n(C3CCCC3)c3nc(=O)c5c(Br)cccc5n43)CC2)NC(=O)[C@@H]2C[C@@H](O)CN2C(=O)[C@@H](NC(=O)C2(F)CC2)C(C)(C)C)cc1 [compound 27] | 388 ± 96 | 308 nM and 361 nM and 494 nM | 2.8 ± 0.5 | 63.8 nM and 63.4 nM and 53.1 nM and 76.7 nM and 81.7 nM and 82 nM | 69 ± 12
Cc1ncsc1-c1ccc(CNC(=O)[C@@H]2C[C@H](O)CN2C(=O)[C@@H](NC(=O)C2(F)CC2)C(C)(C)C)c(OCCN2CCC(c3ccc4c(c3)n(C3CCCC3)c3nc(=O)c5c(Br)cccc5n43)CC2)c1 [compound 19] | 138 ± 43 | 98.2 nM and 132 nM and 183 nM | 0.9 ± 0.1 | 201 nM and 160 nM and 159 nM | 173 ± 19
Cc1ncsc1-c1ccc(CNC(=O)[C@@H]2C[C@@H](O)CN2C(=O)[C@@H](NC(=O)C2(F)CC2)C(C)(C)C)c(OCCOCCOCCN2CCC(c3ccc4c(c3)n(C3CCCC3)c3nc(=O)c5c(Br)cccc5n43)CC2)c1 [compound 21] | 863 ± 179 | 868 nM and 1040 nM and 682 nM | 4.0 ± 0.2 | 119 nM and 144 nM and 128 nM | 130 ± 13
Cc1ncsc1-c1ccc(CNC(=O)[C@@H]2C[C@@H](O)CN2C(=O)[C@@H](NC(=O)C2(F)CC2)C(C)(C)C)c(OCCN2CCC(c3ccc4c(c3)n(C3CCCC3)c3nc(=O)c5c(Br)cccc5n43)CC2)c1 [compound 20] | 182 ± 23 | 157 nM and 202 nM and 187 nM | 0.4 ± 0.0 | 312 nM and 310 nM and 294 nM and 321 nM | 309 ± 11
Cc1ncsc1-c1ccc([C@H](CC[C@@H](C)CCN2CCC(c3ccc4c(c3)n(C3CCCC3)c3nc(=O)c5c(Br)cccc5n43)CC2)NC(=O)[C@@H]2C[C@@H](O)CN2C(=O)[C@@H](NC(=O)C2(F)CC2)C(C)(C)C)cc1 [compound 29] | 397 ± 49 | 347 nM and 400 nM | 7.0 ± 1.3 | 49.3 nM and 72.5 nM and 61.2 nM | 60 ± 12
Cc1ncsc1-c1ccc([C@H](COCCN2CCC(c3ccc4c(c3)n(C3CCCC3)c3nc(=O)c5c(Br)cccc5n43)CC2)NC(=O)[C@@H]2C[C@@H](O)CN2C(=O)[C@@H](NC(=O)C2(N(C)C)CC2)C(C)(C)C)cc1 [compound 26] | 210 ± 17 | 202 nM and 199 nM and 229 nM | 2.6 ± 0.7 | – | 56 ± 23
